Results published in patent US9255062B2, “Fatty acid derivatives for oral administration endowed with high palatability” (priority 2008, dated 2016).

Legend:
[1] = tested on: Caco-2 cells; assay: Ussing chamber, short circuit current in Caco-2 monolayer, baseline conditions; format: cell-based, human; conditions: Caco-2 in Ussing chamber; for decrease in short circuit current (ΔIsc), maximum effect: final concentration 10 mM; for decrease in short circuit current (ΔIsc), maximum effect / time of maximum decrease in Isc after addition: luminal (mucosal) side; for effect on tissue conductance: luminal side, measure of tissue integrity
Procedure: The experiments were carried out using a human intestinal cell line called Caco-2, obtained from the American Type Culture Collection (ATCC, Rockville, USA). These cells, 15 days after confluence, form a monolayer of enterocytes with morphological and functional features identical to those of ileal enterocytes at the apex of the villus (Berni Canani R, et al. Gastroenterology 2003; 124:368-76). Cells were grown in a culture medium consisting in Dulbecco's Modified Eagle's Medium (DMEM) containing glucose (4.5 g/L), 10% Fetal Calf Serum (FCS), 1% non-essential amino acids, 1% L-glutamine, 1% sodium pyruvate, streptomycin ([…]), penicillin ([…]), and were incubated at 37° C. in an atmosphere of 5% CO2 and […]. The culture medium was replaced every day.
For all the experiments were used cells at the 30th-40th pass, 2×10^6 cells per filter, grown on polycarbonate supports (pore size 0.4 μm, diameter 24.5 mm) for 15 days post-confluence. Each support containing the cells was mounted in an Ussing chamber (World Precision Instruments, Sarasota, Fla.) as a cellular monolayer between the luminal and the serosal compartments (Berni Canani R, et al. J. Pediatr. Gastroenterol. Nutr. 28: 315-320, 1999). The Ussing chamber system, allows through the measurement of defined electrical parameters, the study of transepithelial transport of water and electrolytes. These parameters consist in: 1) transepithelial potential difference (PD) and short circuit current (Isc), an expression of the transepithelial passage of ions; 2) resistance (RT) and, ionic conductance (G), a measure of tissue integrity. An absorptive-type stimulus on transepithelial transport induces a decrease in Isc, whereas a secretory-type stimulus induces an increase in Isc. The Isc is expressed in microamperes per square centimeter (μA/cm^2), conductance in millisiemens per square centimeter (mS/cm^2) and the transepithelial potential difference in millivolts (mV). Measurement of these electrical parameters is made possible by the presence of silver electrodes, placed proximally to both sides (serosal and luminal) of the cellular monolayer and connected with an automatic voltage system equipped with software for data acquisition and processing (DVC 1000, World Precision Instruments, Sarasota, Fla., USA). Each compartment contained 10 ml of Ringer's solution with the following composition (in mmol/L): NaCl, 114; KCl, 5; NaH2PO4, 0.3; Na2HPO4, 1.65; CaCl2, 1.25; MgCl2, 1.1; NaHCO3, 25; glucose, 10. The incubation liquid was circulated through the chamber by means of the flow of a gaseous mixture composed of 95% O2 and 5% CO2 and was maintained at a temperature of 37° C. by means of a thermostat (Berni Canani R. et al. J. Pediatr. Gastroenterol. Nutr. 28: 315-320, 1999). The study of changes in electrical parameters reflecting changes in transepithelial transport of water and electrolytes was carried out in baseline conditions and after administration of the compounds on the luminal side of the monolayer of Caco-2 cells.

[2] = in vivo; conditions: both, Swiss, mouse, po
[3] = tested on: Swiss mice; conditions: oral administration

Compound | decrease in short circuit current (ΔIsc), maximum effect [1] | time of maximum decrease in Isc after addition [1] | effect on tissue conductance [1] | LD50 [2] | LD50 expressed as equivalent of butyric acid [3]
CCCC(=O)NC(Cc1ccccc1)C(N)=O (stereo not shown) [Compound 1, N-(1-carbamoyl-2-phenyl-ethyl)butyramide] | −0.9±0.3 μA/cm^2 | approximately 40 minutes | without interfering with the stability of tissue conductance | 23800 mg/kg | 8.8 g
CCCC(=O)NC(=O)C(Cc1ccccc1)NC(=O)CCC (stereo not shown) [Compound 2, N-(1-butyroyl-carbamoyl-2-phenyl-ethyl)butyramide] | −0.4±0.1 μA/cm^2 | 40 to 45 min | without interfering with the stability of tissue conductance | 16300 mg/kg | 8.8 g
CCCC1=NC(=O)C(Cc2ccccc2)N1 (stereo not shown) [Compound 3, 5-benzyl-2-propyl-1H-imidazol-4(5H)-one] | −1.1±0.1 μA/cm^2 | 50 min | absence of any significant changes in tissue conductance | 21600 mg/kg | 8.8 g
CCCC(=O)O [butyric acid, reference compound] |  |  |  | 8800 mg/kg | 
CCCC(=O)[O-].[Na+] [sodium butyrate, reference compound] | −0.8±0.2 μA/cm^2 | approximately 35 minutes | did not alter tissue conductance |  | 
